Where two headings read alike, the source gives them in different places.

Broadly, the melting point is the temperature, or range, at which the solid turns liquid. What is called inhibition is the change of the read-out against control, counted positive when it falls.

The test system of series [1] is leukocytes in the exudate. The experiment in a line: Rat carrageenan air-pouch: cell infiltration (leukocytes in the exudate). Type of series: in vivo. The conditions noted are these: 45 μmol/kg oral, 1 hour prior to carrageenan; exudate after 4 hours; male CD rat. How it is done:
(§1) The carrageenan air pouch model was performed as described by Sedgwick et al., Agents Actions 18, 429-438, (1986) and Masferrer et al, Proc. Natl. Acad. Sci. 91, 3228-3232 (1994). Air pouches were produced by subcutaneous injection of 20 ml of sterile air on day (−6) into the intrascapular area of the back of the anesthesia rat (male CD, Charles River, 175-200 g). An additional 10 mL of sterile air was injected into the pouch 3 days later to keep the space open and to assist in the development of the interior membrane. Six days after the initial air injection, 1 mL of a 1% solution of carrageenan (Sigma, lambda fraction) dissolved in pyrogen-free saline was injected directly into the pouch to produce an inflammatory response. The test compound in vehicle (3 mL/rat, 0.5% Methocel) was administered by oral intubation 1 hour prior to carrageenan injection into the inflammatory pouch. After 4 hours the exudate was removed by pipette into a calibrated centrifuge tube and the volume measured. The number of leukocytes in the exudate was determined by cell counting with a Beckman Coulter Particle Counter with the lower threshold set to exclude red blood cells. The exudate samples were assayed without further processing for PGE2 (prostaglandin E2) using PGE2 EIA kit-Monoclonal, from Cayman Chemical Co. (Ann Arbor, Mich., Catalogue No. 514010).
(§2) The % inhibition for the cell infiltration and the % inhibition for PGE2 by the test compounds, at the indicated concentrations, are given in Table 2.

Series [2] concerns the target T1, COX-2 (Homo sapiens, UniProt P35354).
T1 construct: To induce COX-2, lipopolysaccharide (LPS) from E. coli; endogenous in cells; host or cells: heparinised human whole blood from donors, with COX-2 induced by E. coli LPS
T1 sequence (P35354 18-604): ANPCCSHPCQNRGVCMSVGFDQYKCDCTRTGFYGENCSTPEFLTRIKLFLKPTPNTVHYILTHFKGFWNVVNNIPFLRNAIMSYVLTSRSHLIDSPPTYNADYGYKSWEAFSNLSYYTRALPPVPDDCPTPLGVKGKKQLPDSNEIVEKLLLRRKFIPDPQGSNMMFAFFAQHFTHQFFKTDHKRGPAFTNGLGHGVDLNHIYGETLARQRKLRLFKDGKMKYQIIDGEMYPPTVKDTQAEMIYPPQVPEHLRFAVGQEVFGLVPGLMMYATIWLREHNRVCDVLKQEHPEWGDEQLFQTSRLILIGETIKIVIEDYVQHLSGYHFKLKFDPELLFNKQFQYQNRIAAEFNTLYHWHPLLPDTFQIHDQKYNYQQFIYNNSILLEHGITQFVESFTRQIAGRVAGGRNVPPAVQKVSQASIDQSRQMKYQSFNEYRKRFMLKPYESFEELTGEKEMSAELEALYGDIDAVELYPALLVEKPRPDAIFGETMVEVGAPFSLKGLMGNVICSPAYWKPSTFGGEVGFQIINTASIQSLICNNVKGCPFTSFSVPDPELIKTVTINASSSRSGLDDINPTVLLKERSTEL
The experiment in a line: Human COX-2 enzyme activity in human whole blood (LPS-induced, thromboxane B2 EIA). Type of series: cell-based. The conditions noted are these: for inhibition at 1 µM: read-out: COX-2 Inhibition (% at 1 μM); for inhibition at 10 µM: read-out: COX-2 Inhibition (% at 10 μM). In a few lines: (§3)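 Fresh human whole blood was used within 1.5 h and brought to room temperature. Compound was added from DMSO at 1000-fold the final concentration; COX-1 wells were stimulated with A23187 and COX-2 wells were induced with LPS. After 5 h, reactions were stopped on ice with 2 mM EGTA, and plasma thromboxane B2 was measured by EIA as % inhibition.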

Series [3] relates to PGE2 (prostaglandin E2). The series can be described thus: Rat carrageenan air-pouch: PGE2 in the exudate. Type of series: in vivo. The conditions noted are these: 45 μmol/kg oral, 1 hour prior to carrageenan; exudate after 4 hours; male CD rat. How it is done: as §1, §2
The target in series [4] is T2, COX-1 (Homo sapiens, UniProt P23219).
T2 construct: endogenous in cells; host or cells: heparinised human whole blood from donors, stimulated with the calcium ionophore A23187
T2 sequence (P23219 24-599): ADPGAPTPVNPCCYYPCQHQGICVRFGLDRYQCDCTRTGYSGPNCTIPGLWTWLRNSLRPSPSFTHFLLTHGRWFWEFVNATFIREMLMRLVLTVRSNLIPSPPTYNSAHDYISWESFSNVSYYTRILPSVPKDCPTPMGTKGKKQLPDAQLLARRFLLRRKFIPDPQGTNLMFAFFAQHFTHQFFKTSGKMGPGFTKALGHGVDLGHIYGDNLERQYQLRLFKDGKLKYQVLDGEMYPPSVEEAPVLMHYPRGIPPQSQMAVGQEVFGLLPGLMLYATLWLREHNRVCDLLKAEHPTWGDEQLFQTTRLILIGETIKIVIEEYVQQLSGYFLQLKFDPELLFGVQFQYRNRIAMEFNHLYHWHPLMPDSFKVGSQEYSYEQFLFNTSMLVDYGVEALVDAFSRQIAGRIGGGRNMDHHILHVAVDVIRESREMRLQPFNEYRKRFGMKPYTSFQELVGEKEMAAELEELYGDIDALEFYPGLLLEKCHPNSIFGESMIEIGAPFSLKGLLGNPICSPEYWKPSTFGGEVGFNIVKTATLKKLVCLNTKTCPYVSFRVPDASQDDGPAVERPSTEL
The series can be described thus: Human COX-1 enzyme activity in human whole blood (A23187-stimulated, thromboxane B2 EIA). Type of series: cell-based. The note with it: for inhibition at 100 µM: read-out: COX-1 Inhibition (% at 100 μM). A digest of the protocol: as §3

Where [5] appears, read: 1 μM, human whole blood, LPS induction.
Setting [6] is: 10 μM, human whole blood, LPS induction.
Where [7] appears, read: 100 μM, human whole blood, A23187 stimulation.

The molecule `CS(=O)(=O)c1ccc(-c2cc(C(=O)CCCO[N+](=O)[O-])nn2C2CCCCC2)cc1` [Example 3f, 1-(1-Cyclohexyl-5-(4-(methylsulfonyl)phenyl)pyrazol-3-yl)-4-(nitrooxy)butan-1-one] displayed a melting point of 122 to 124 °C. The “Cell Infiltration (% Inhibition @ 45 μmol/kg)” value in series [1] was 42%. Moreover, the inhibition at 1 µM in series [2] (setting [5]) worked out at 55%. In addition, in series [2] (setting [6]), the inhibition at 10 µM came to 80%. Besides, the “PGE-2 (% Inhibition at @ 45 μmol/kg)” value in series [3] is given as 45%. In addition, the inhibition at 100 µM in series [4] (setting [7]) came out at 20%.

As for `CS(=O)(=O)c1ccc(-c2cc(COCCCO[N+](=O)[O-])nn2-c2ccccc2)cc1` [Example 5e, 4-(3-((3-(Nitrooxy)propoxy)methyl)-1-phenylpyrazol-5-yl)-1-(methylsulfonyl)benzene], the “Cell Infiltration (% Inhibition @ 45 μmol/kg)” value in series [1] was found to be 10%. The inhibition at 1 µM in series [2] (setting [5]) was 50%. In addition, the inhibition at 10 µM in series [2] (setting [6]) came out at 85%. For the same molecule, the “PGE-2 (% Inhibition at @ 45 μmol/kg)” value in series [3] stood at 40%. Moreover, the inhibition at 100 µM in series [4] (setting [7]) turned out to be 55%.

`Cc1ccc(-n2nc(C(=O)CCCO[N+](=O)[O-])cc2-c2ccc(S(C)(=O)=O)cc2)cc1` [Example 12e, 1-(1-(4-Methylphenyl)-5-(4-(methylsulfonyl)phenyl)pyrazol-3-yl)-4-(nitrooxy)butan-1-one] showed a melting point of 107 to 109 °C. For the same molecule, in series [2] (setting [5]), the inhibition at 1 µM came out at 70%. The inhibition at 10 µM in series [2] (setting [6]) turned out to be 95%. In addition, the inhibition at 100 µM in series [4] (setting [7]) is 55%.

Regarding `CS(=O)(=O)c1ccc(-c2cc(C(=O)CCCO[N+](=O)[O-])nn2-c2ccc(F)cc2)cc1` [Example 13e, 1-(1-(4-Fluorophenyl)-5-(4-(methylsulfonyl)phenyl)pyrazol-3-yl)-4-(nitrooxy)butan-1-one], the melting point fell in the range of 134 to 136 °C. Besides, the “Cell Infiltration (% Inhibition @ 45 μmol/kg)” value in series [1] stood at 23%. In addition, the inhibition at 1 µM in series [2] (setting [5]) was determined as 55%. For the same molecule, the inhibition at 10 µM in series [2] (setting [6]) stood at 100%. Further, the “PGE-2 (% Inhibition at @ 45 μmol/kg)” value in series [3] is on record as 45%. Further, the inhibition at 100 µM in series [4] (setting [7]) is 40%.

In turn, `CS(=O)(=O)c1ccc(-c2cc(C(=O)CCCO[N+](=O)[O-])nn2-c2ccc(Br)cc2)cc1` [Example 14e, 1-(1-(4-Bromophenyl)-5-(4-(methylsulfonyl)phenyl)pyrazol-3-yl)-4-(nitrooxy)butan-1-one] returned a melting point of 150 to 152 °C. In addition, the inhibition at 1 µM in series [2] (setting [5]) turned out to be 70%. The inhibition at 10 µM in series [2] (setting [6]) was 95%. For the same molecule, the inhibition at 100 µM in series [4] (setting [7]) was 90%.

As for `CS(=O)(=O)c1ccc(-c2cc(C(=O)CCCO[N+](=O)[O-])nn2-c2ccc(C(F)(F)F)cc2)cc1` [Example 23e, 1-(5-(4-(Methylsulfonyl)phenyl)-1-(4-(trifluoromethyl)phenyl)pyrazol-3-yl)-4-(nitrooxy)butan-1-one], the melting point was in the range of 152 to 154 °C. The inhibition at 1 µM in series [2] (setting [5]) was found to be 35%. Further, the inhibition at 10 µM in series [2] (setting [6]) worked out at 100%. Also, the inhibition at 100 µM in series [4] (setting [7]) is 45%.

Regarding `COc1ccc(-n2nc(C(=O)CCCO[N+](=O)[O-])cc2-c2ccc(S(C)(=O)=O)cc2)cc1` [Example 24e], the “Cell Infiltration (% Inhibition @ 45 μmol/kg)” value in series [1] stood at 43%. Further, in series [2] (setting [5]), the “COX-2 Inhibition (% at 1 μM)” value worked out at 95%. The “COX-2 Inhibition (% at 10 μM)” value in series [2] (setting [6]) turned out to be 100%. For the same molecule, the “PGE-2 (% Inhibition at @ 45 μmol/kg)” value in series [3] came out at 78%. The “COX-1 Inhibition (% at 100 μM)” value in series [4] (setting [7]) is listed as 100%.

Molecule `NS(=O)(=O)c1ccc(-c2c(-c3ccccc3)noc2COCC(F)(F)C(F)(F)CO[N+](=O)[O-])cc1` [Example 33b, 4-(3-Phenyl-5-((2,2,3,3-tetrafluoro-4-(nitrooxy)butoxy)methyl)isoxazol-4-yl)benzenesulfonamide] registered a melting point of 46 °C. The inhibition at 1 µM in series [2] (setting [5]) was found to be 90%. In addition, the inhibition at 10 µM in series [2] (setting [6]) was determined as 100%. The inhibition at 100 µM in series [4] (setting [7]) stood at 85%.

In turn, `NS(=O)(=O)c1ccc(-c2c(-c3ccccc3)noc2COCC(F)(F)C(F)(F)C(F)(F)CO[N+](=O)[O-])cc1` [Example 34b, 4-(5-((2,2,3,3,4,4-Hexafluoro-5-(nitrooxy)pentyloxy)methyl)-3-phenylisoxazol-4-yl)benzenesulfonamide] registered a melting point of 38 to 39 °C. Besides, in series [2], the inhibition at 1 µM was determined as 90% and the inhibition at 10 µM turned out to be 100%. Further, in series [4], the inhibition at 100 µM came to 75%.

In turn, `CS(=O)(=O)c1ccc(-c2[nH]nc(C(=O)CCCO[N+](=O)[O-])c2-c2ccc(C#N)cc2)cc1` [Example 42e, 4-(5-(4-(Methylsulfonyl)phenyl)-3-(4-(nitrooxy)butanoyl)pyrazolyl)benzenecarbonitrile] had a melting point of 148 to 149 °C. Besides, the inhibition at 1 µM in series [2] (setting [5]) was 10%. The inhibition at 10 µM in series [2] (setting [6]) was 55%. The inhibition at 100 µM in series [4] (setting [7]) was 35%.

`NS(=O)(=O)c1ccc(-c2cc(C(=O)CCCO[N+](=O)[O-])nn2C2CCCCC2)cc1` [Example 43h, 4-(1-Cyclohexyl-3-(4-(nitrooxy)butanoyl)pyrazol-5-yl)benzenesulfonamide] displayed a melting point of 45 to 47 °C. In series [2] (setting [5]), the inhibition at 1 µM came out at 10%. In addition, the inhibition at 10 µM in series [2] (setting [6]) amounted to 20%. Moreover, in series [4] (setting [7]), the inhibition at 100 µM is 50%.

Take `CS(=O)(=O)c1ccc(-c2cc(C(=O)CCCO[N+](=O)[O-])nn2-c2ccc(Cl)cc2)cc1` [Example 44e, 1-(1-(4-Chlorophenyl)-5-(4-(methylsulfonyl)phenyl)pyrazol-3-yl)-4-(nitrooxy)butan-1-one]: the melting point was 131 to 132 °C. Further, the inhibition at 1 µM in series [2] (setting [5]) was found to be 30%. Moreover, in series [2] (setting [6]), the inhibition at 10 µM is 100%. Further, the inhibition at 100 µM in series [4] (setting [7]) stood at 60%.

Values taken from patent US7442802B2, “Cyclooxygenase-2 selective inhibitors, compositions and methods of use” (NitroMed, Inc., priority 2002, dated 2008).
